According to patent EP4578855A1, “PROLYL HYDROXYLASE INHIBITOR AND USE THEREOF” (Suzhong Pharmaceutical Group Co., Ltd., priority 2022, dated 2024):
Values joined by “and” are separate entries in the source; they are usually repeats but may differ in a detail not shown here. Identical values can stand only once. Like-named read-outs stand apart in the source and are kept apart here.

Columns and labels:
[1] = biological target: T1, PHD2 enzyme (Homo sapiens, UniProt Q9GZT9); experiment: Detection of PHD2 enzyme activity inhibition (FITC-HIF1α tracer, mP read-out); assay type: biochemical
T1 construct: purchased Active motif
Method: (1) A 1×Assay buffer was prepared. […] 100 nL of 100% DMSO was added into a negative control well and a positive control well respectively. (3) An enzyme solution with 2 times final concentration was prepared with the 1×Assay buffer. (4) 5 µL of the enzyme solution with 2 times final concentration was added into a compound well and the positive control well respectively. (5) 5 µL of the 1 ×Assay buffer was added into the negative control well. (6) The 384-well plate was centrifuged at 1000 rpm for 30 seconds, oscillated and mixed evenly, and then incubated for 15 minutes. (7) A tracer solution with 2 times final concentration was prepared with the 1×Assay buffer, and 5.0 µL of the tracer solution with 2 times final concentration was added to start the reaction.

[2] = tested on: human hepatocarcinoma cell line Hep3B; experiment: In-vitro erythropoietin (EPO)-inducing activity experiment (EPO ELISA, OD450); assay type: cell-based; settings: Homo sapiens, Hep3B cells, incubated 24 hours at 37°C
Method: In-vitro erythropoietin (EPO)-inducing activities of the compounds in Embodiments 10 to 12 were evaluated by using a human hepatocarcinoma cell line Hep3B (ATCC). Hep3B cells were cultured in an EMEM medium (Eagle's Minimum Essential Medium) at 37°C in the presence of 10% fetal bovine serum (FBS). Experimental steps were as follows: • (1) Cell preparation: the cells were inoculated in a 96-well plate, and cell plating was carried out according to an amount of 100 µL per well based on 2*10~4 per well. • (2) Preparation of compound concentration gradient: 100 µM, 20 µM, 2-parallel well detection. A solution with 200 times final concentration was prepared in a 96-well plate, the compound was diluted 200/3 times by using a cell culture medium, and then 50 µL of the compound was sucked for drug administration to the cells. 50 µL of DMSO-containing culture solution was added into a negative control well to make a final concentration contain 5 ‰ DMSO, and 50 µL of positive compound with the highest concentration was added into a positive control well to incubate the cells at 37°C for 24 hours. • (3) The reaction plate was washed twice with 1X Wash Buffer according to about 400 µL per well. • (4) 100 µL of diluted standard (comprising a standard blank control) was added into an appropriate well. • (5) 50 µL of sample and 50 µL of Sample Diluent were added into a sample well. • (6) 50 µL of 1X Biotin Conjugated Antibody were added into all wells to incubate the cells at room temperature for 1 hour. • (7) The reaction plate was washed with 1X Wash Buffer for 6 times according to about 400 µL per well. • (8) 100 µL of 1X Streptavidin-HRP was added in to each well to incubate the cells at room temperature for 15 minutes. • (9) The reaction plate was washed with 1X Wash Buffer for 6 times according to about 400 µL per well. • (10) 100 µL of TMB Substrate Solution was added into each well to incubate the cells at room temperature for 10 minutes. • (11) 100 µL of Stop Solution was added into each well. • (12) OD450 was read by EnSight.
The EPO-inducing activities of the compounds were expressed as the concentration for 50% of maximal effect (EC50).

[3] = tested on: EPO (erythropoietin); experiment: Pharmacological evaluation: influence of continuous administration on EPO level; assay type: in vivo, SD rats
Method: This experiment was intended to evaluate an influence of continuous administration of the compounds prepared in Embodiments 12, 13 and 14 on EPO (erythropoietin) in SD rats.
• Line: SD (Sprague Dawley) • Weeks of age and weight: 8 weeks, weight 200 g to 220 g • Sex: male • Animal source: Beijing Vital River Laboratory Animal Technology Co., Ltd.
• Positive drug: Enarodustat • Description: commercialized drugs approved for marketing in Japan • Specification and content: 2 mg JTZ-951(Enarodustat), 140 capsules/box
After a week of adaptive feeding, SD rats were randomly divided into 3 groups, 6 rats in each group, which were namely a blank group, a positive drug group (Enarodustat) and a group of compound in Embodiment 12. An Enarodustat tablet was crushed by a mortar, then quantitatively added with 0.5% methyl cellulose, and magnetically stirred and mixed evenly; and the compound prepared in Embodiment 12 was weighed, then quantitatively added with 0.5% methyl cellulose, and magnetically stirred and mixed evenly. […] The drug was given once a day for 14 consecutive days, and blood was taken to measure an EPO level 4 hours after the drug was given on the 14th day.

[4] = Pharmacokinetic evaluation after intravenous injection or intragastric administration, plasma LC-MS/MS; assay type: in vivo, SD rats; settings: male, Sprague-Dawley, rat, plasma, male SD rats
Description: After the compounds were given to SD rats by intravenous injection or intragastric administration, concentrations of related compounds in plasma were detected by an LC-MS/MS method, and pharmacokinetics and absolute bioavailability of the compounds prepared in Embodiments 13 and 14 in the rats were preliminarily evaluated.
2. Line: Sprague Dawley rats, sex: male, weight: 200 g to 250 g
Pharmacokinetic characteristics of rodents after intravenous injection and oral administration of the compounds were tested by a standard scheme. In the experiment, a candidate compound was prepared into a clear solution, and given to the rats by single intravenous injection and intragastric administration. A solvent for intravenous injection was a certain proportion of N,N-dimethylacetamide (DMA) and 10% Solutol HS15 solution, and a solvent for oral administration was a certain proportion of sodium carboxymethyl cellulose (CMC) suspension. 5 minutes, 15 minutes, 30 minutes, 1 hour, 2 hours, 4 hours, 6 hours, 8 hours, 10 hours and 24 hours after drug administration, blood samples of the animals were respectively collected into K2EDTA anticoagulation tubes, which were temporarily stored on ice until centrifugation.

[5] = test concentration from 10 µM, diluted 3 times into 10 concentrations, read-out: IC50

T1 sequence (Q9GZT9 whole entry, species assumed): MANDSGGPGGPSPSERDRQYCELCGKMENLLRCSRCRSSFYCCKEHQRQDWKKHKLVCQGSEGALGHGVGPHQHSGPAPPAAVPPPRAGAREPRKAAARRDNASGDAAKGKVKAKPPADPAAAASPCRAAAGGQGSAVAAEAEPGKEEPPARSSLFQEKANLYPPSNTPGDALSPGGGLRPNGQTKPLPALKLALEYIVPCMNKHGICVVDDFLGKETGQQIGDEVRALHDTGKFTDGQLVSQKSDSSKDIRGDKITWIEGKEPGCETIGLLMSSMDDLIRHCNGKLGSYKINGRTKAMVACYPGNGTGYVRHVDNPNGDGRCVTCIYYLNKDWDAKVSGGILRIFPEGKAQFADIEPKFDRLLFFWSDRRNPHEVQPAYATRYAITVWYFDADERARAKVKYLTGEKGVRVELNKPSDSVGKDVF

Structure (SMILES)	IC50 [1, 5] [nM]	further results
O=C(O)CNC(=O)c1c(O)cc(Oc2ccccc2Cl)n2ncnc12 [Compound in Embodiment 2, (5-(2-chlorophenoxy)-7-hydroxy-[1,2,4]triazolyl[1,5-a]pyridine-8-carbonyl)glycine]	34.8	–
Cc1nc(C(=O)NCC(=O)O)c(O)c2ccc(Oc3ccccc3)cc12 [FG-4592, Roxadustat, reference compound]	–	EC50 ([2]; Hep3B, 24 h): 13800 nM
O=C(O)CNC(=O)c1c(O)cc(C=Cc2ccccc2)n2ncnc12 [Compound in Embodiment 11, [(7-hydroxy-5-(styryl)-[1,2,4]triazolo[1,5-a]pyridine-8-carbonyl)amino]acetic acid]	31.3	EC50 ([2]; Hep3B, 24 h): 1790 nM
O=C(O)CNC(=O)c1c(O)cc(Oc2cccc(N3CCOCC3)c2)n2ncnc12 [Compound in Embodiment 7, (5-(3-morpholinphenoxy)-7-hydroxy-[1,2,4]triazolyl[1,5-a]pyridine-8-carbonyl)glycine]	34.1	–
O=C(O)CNC(=O)c1c(O)cc(Oc2ccc(Cl)cc2)n2ncnc12 [Compound in Embodiment 4, (5-(4-chlorophenoxy)-7-hydroxy-[1,2,4]triazolyl[1,5-a]pyridine-8-carbonyl)glycine]	33.3	–
Cc1ccc(Oc2cc(O)c(C(=O)NCC(=O)O)c3ncnn23)cc1 [Compound in Embodiment 5, (5-(p-tolyloxy)-7-hydroxy-[1,2,4]triazolyl[1,5-a]pyridine-8-carbonyl)glycine]	44.1	–
O=C(O)CNC(=O)c1c(O)cc(CCc2ccccc2)n2ncnc12 [Enarodustat, reference compound]	–	EPO levels in serum of the rats ([3]; after 14 days of administration, in words): increased significantly; EPO level after 14 days of administration ([3]; individual rats 1-6, 0.3 mg/mL, 10 mL/kg, once a day for 14 consecutive days, blood 4 hours after the drug on the 14th day, 2904.6 pg/mL was an upper limit of measurement): 452.8 pg/mL and 396.3 pg/mL and 483.2 pg/mL and 404.5 pg/mL and 418.4 pg/mL and 442.3 pg/mL; EPO level after 14 days of administration, Mean ([3]; mean of 6 rats, 0.3 mg/mL, 10 mL/kg, once a day for 14 consecutive days, blood 4 hours after the drug on the 14th day, 2904.6 pg/mL was an upper limit of measurement): 432.9 pg/mL; AUC ([4]; route and dose not given, read-out: Concentration integral AUC): 11400 ng·h/mL; half-life ([4]; route and dose not given, read-out: Half-life period T1/2 (converted)): 1.12 h; bioavailability ([4]; oral, intragastric vs intravenous, read-out: Bioavailability F): 30.1%; IC50 [1]: 21.9 nM; EC50 [2]: 15100 nM
O=C(O)CNC(=O)c1c(O)cc(C#Cc2ccccc2)n2ncnc12 [Compound in Embodiment 10, [(7-hydroxy-5-(phenylethynyl)-[1,2,4]triazolo[1,5-a]pyridine-8-carbonyl)amino]acetic acid]	46.7	EC50 ([2]; Hep3B, 24 h): 6460 nM
CCCOc1cc(O)c(C(=O)NCC(=O)O)c2ncnn12 [Compound in Embodiment 9, (5-(propoxy)-7-hydroxy-[1,2,4]triazolyl[1,5-a]pyridine-8-carbonyl)glycine]	34	–
O=C(O)CNC(=O)c1c(O)cc(Oc2ccccc2)n2ncnc12 [Compound in Embodiment 1]	19.8	–
O=C(O)CNC(=O)c1c(O)cc(Oc2cccc(Cl)c2)n2ncnc12 [Compound in Embodiment 3, (5-(3-chlorophenoxy)-7-hydroxy-[1,2,4]triazolyl[1,5-a]pyridine-8-carbonyl)glycine]	30.2	–
COc1ccc(Oc2cc(O)c(C(=O)NCC(=O)O)c3ncnn23)cc1 [Compound in Embodiment 6, (5-(p-methoxyphenoxy)-7-hydroxy-[1,2,4]triazolyl[1,5-a]pyridine-8-carbonyl)glycine]	47.6	–
O=C(O)CNC(=O)c1c(O)cc(Oc2ccc(F)cc2)n2ncnc12 [Compound in Embodiment 8, (5-(4-fluorophenoxy)-7-hydroxy-[1,2,4]triazolyl[1,5-a]pyridine-8-carbonyl)glycine]	35.4	–
